Experimental data from patent US20070021385A1, “Compositions and methods for wood preservation” (priority 2005, published 2007).

Tests used:
brown rots or white rots = test: Accelerated decay testing in the lab; details: confirmed by accelerated decay testing in the lab
Source text: Provided herein is an organic composition and method for use thereof in treatment of cellulosic material, more particularly wood. The composition comprises an azole or quaternary ammonium fungicide compound, and a pyrethroid insecticide. The composition imparts to the treated wood resistance to both fungi and insects. […] This has been confirmed by accelerated decay testing in the lab.

decay fungi = test: AWPA E7-01 field stake test, decay ratings, Gainesville, Florida; assay type: in vivo; set-up: Average Decay Ratings: scale not given here
Procedure: (§1) Preservative treating solutions were prepared by the mixing the concentrates in Example 1 with ethanol. The treated stakes were installed in Gainesville, Fla. for field performance evaluation following the procedure described in American Wood Preservers' Association (AWPA) Standard E7-01: “Standard Method of Evaluating Wood Preservatives by Field Tests with Stakes”.
(§2) Preservative treating solutions were prepared by the mixing the concentrates in Example 1 with toluene. The treated stakes were installed in Gainesville, Fla. for field performance evaluation following the procedure described in American Wood Preservers' Association (AWPA) Standard E7-01: “Standard Method of Evaluating Wood Preservatives by Field Tests with Stakes”.
Preservative treating solutions were prepared by the mixing the concentrates in Example 2 and 13. The treated stakes were installed in Gainesville, Fla. for field performance evaluation following the procedure described in American Wood Preservers' Association (AWPA) Standard E7-01: “Standard Method of Evaluating Wood Preservatives by Field Tests with Stakes”. […]
(§3) Preservative treating solutions were prepared by the mixing the concentrates in Example 1 with white spirits. The treated stakes were installed in Gainesville, Fla. for field performance evaluation following the procedure described in American Wood Preservers' Association (AWPA) Standard E7-01: “Standard Method of Evaluating Wood Preservatives by Field Tests with Stakes”.

termites = test: AWPA E7-01 field stake test, termite ratings, Gainesville, Florida; assay type: in vivo; set-up: Average Termite Ratings: scale not given here
Procedure: as §1, §2
Preservative treating solutions were prepared by the mixing the concentrates in Example 2 and 13. The treated stakes were installed in Gainesville, Fla. for field performance evaluation following the procedure described in American Wood Preservers' Association (AWPA) Standard E7-01: “Standard Method of Evaluating Wood Preservatives by Field Tests with Stakes”.
as §3

`CC1(C)C(C=C(Cl)Cl)C1C(=O)OCc1cccc(Oc2ccccc2)c1` (centres unmarked) [permethrin] was tested, and the “fungicidal activity against brown rots or white rots” value (“fungicidal activity” below) (brown rots or white rots) was “do not have fungicidal activity”.

With `Cc1c(COC(=O)[C@@H]2[C@H](/C=C(\Cl)C(F)(F)F)C2(C)C)cccc1-c1ccccc1` (racemic) [bifenthrin] the “fungicidal activity” value (brown rots or white rots) was “do not have fungicidal activity”.

`CC(C)(C)C(O)(CCc1ccc(Cl)cc1)Cn1cncn1` (racemic) [Tebuconazole, (RS)-1-p-chlorophenyl-4,4-dimethyl-3-(1H -1,2,4-triazol-1-ylmethyl)pentan-3-ol] was tested, and the “protection / bio-efficacy against fungal attack (in words)” value (decay fungi; different retention levels, text summary of Table 1A) was “certain degree of protection against fungal attack”, the “Average Decay Ratings” value (decay fungi; retention 0.32 kg/m^3, 12 months, Table 1A, Example 14 ethanol) was 8.2 and the “Average Decay Ratings” value (decay fungi; retention 0.32 kg/m^3, 12 months, Table 2A, Example 15 toluene) was 8.2. For the same molecule, the “Average Decay Ratings” value (decay fungi; retention 0.32 kg/m^3, 12 months, Table 3A, Example 16 (concentrates of Examples 2 and 13)) was 8.2, the “Average Decay Ratings” value (decay fungi; retention 0.32 kg/m^3, 24 months, Table 1A, Example 14 ethanol) was 2.6 and the “Average Decay Ratings” value (decay fungi; retention 0.32 kg/m^3, 24 months, Table 2A, Example 15 toluene) was 2.6. For the same molecule, the “Average Decay Ratings” value (decay fungi; retention 0.32 kg/m^3, 24 months, Table 3A, Example 16 (concentrates of Examples 2 and 13)) was 2.6, the “Average Decay Ratings” value (decay fungi; retention 0.32 kg/m^3, 36 months, Table 1A, Example 14 ethanol) was 0.0 and the “Average Decay Ratings” value (decay fungi; retention 0.32 kg/m^3, 36 months, Table 2A, Example 15 toluene) was 0.0. The “Average Decay Ratings” value (decay fungi; retention 0.32 kg/m^3, 36 months, Table 3A, Example 16 (concentrates of Examples 2 and 13)) was 0.0, the “Average Decay Ratings” value (decay fungi; retention 0.32 kg/m^3, 48 months, Table 1A, Example 14 ethanol) was 0.0 and the “Average Decay Ratings” value (decay fungi; retention 0.32 kg/m^3, 48 months, Table 2A, Example 15 toluene) was 0.0. For the same molecule, the “Average Decay Ratings” value (decay fungi; retention 0.32 kg/m^3, 48 months, Table 3A, Example 16 (concentrates of Examples 2 and 13)) was 0.0, the “Average Decay Ratings” value (decay fungi; retention 0.48 kg/m^3, 12 months, Table 1A, Example 14 ethanol) was 5.8 and the “Average Decay Ratings” value (decay fungi; retention 0.48 kg/m^3, 12 months, Table 2A, Example 15 toluene) was 5.8. For the same molecule, the “Average Decay Ratings” value (decay fungi; retention 0.48 kg/m^3, 12 months, Table 3A, Example 16 (concentrates of Examples 2 and 13)) was 5.8, the “Average Decay Ratings” value (decay fungi; retention 0.48 kg/m^3, 24 months, Table 1A, Example 14 ethanol) was 0.8 and the “Average Decay Ratings” value (decay fungi; retention 0.48 kg/m^3, 24 months, Table 2A, Example 15 toluene) was 0.8. The “Average Decay Ratings” value (decay fungi; retention 0.48 kg/m^3, 24 months, Table 3A, Example 16 (concentrates of Examples 2 and 13)) was 0.8, the “Average Decay Ratings” value (decay fungi; retention 0.48 kg/m^3, 36 months, Table 1A, Example 14 ethanol) was 0.0 and the “Average Decay Ratings” value (decay fungi; retention 0.48 kg/m^3, 36 months, Table 2A, Example 15 toluene) was 0.0. The “Average Decay Ratings” value (decay fungi; retention 0.48 kg/m^3, 36 months, Table 3A, Example 16 (concentrates of Examples 2 and 13)) was 0.0, the “Average Decay Ratings” value (decay fungi; retention 0.48 kg/m^3, 48 months, Table 1A, Example 14 ethanol) was 0.0 and the “Average Decay Ratings” value (decay fungi; retention 0.48 kg/m^3, 48 months, Table 2A, Example 15 toluene) was 0.0. The “Average Decay Ratings” value (decay fungi; retention 0.48 kg/m^3, 48 months, Table 3A, Example 16 (concentrates of Examples 2 and 13)) was 0.0, the “Average Decay Ratings” value (decay fungi; retention 0.64 kg/m^3, 12 months, Table 1A, Example 14 ethanol) was 8.7 and the “Average Decay Ratings” value (decay fungi; retention 0.64 kg/m^3, 12 months, Table 2A, Example 15 toluene) was 8.7. For the same molecule, the “Average Decay Ratings” value (decay fungi; retention 0.64 kg/m^3, 12 months, Table 3A, Example 16 (concentrates of Examples 2 and 13)) was 8.7, the “Average Decay Ratings” value (decay fungi; retention 0.64 kg/m^3, 24 months, Table 1A, Example 14 ethanol) was 1.2 and the “Average Decay Ratings” value (decay fungi; retention 0.64 kg/m^3, 24 months, Table 2A, Example 15 toluene) was 1.2. The “Average Decay Ratings” value (decay fungi; retention 0.64 kg/m^3, 24 months, Table 3A, Example 16 (concentrates of Examples 2 and 13)) was 1.2, the “Average Decay Ratings” value (decay fungi; retention 0.64 kg/m^3, 36 months, Table 1A, Example 14 ethanol) was 0.0 and the “Average Decay Ratings” value (decay fungi; retention 0.64 kg/m^3, 36 months, Table 2A, Example 15 toluene) was 0.0. For the same molecule, the “Average Decay Ratings” value (decay fungi; retention 0.64 kg/m^3, 36 months, Table 3A, Example 16 (concentrates of Examples 2 and 13)) was 0.0, the “Average Decay Ratings” value (decay fungi; retention 0.64 kg/m^3, 48 months, Table 1A, Example 14 ethanol) was 0.0 and the “Average Decay Ratings” value (decay fungi; retention 0.64 kg/m^3, 48 months, Table 2A, Example 15 toluene) was 0.0. The “Average Decay Ratings” value (decay fungi; retention 0.64 kg/m^3, 48 months, Table 3A, Example 16 (concentrates of Examples 2 and 13)) was 0.0, the “insect / termite attack on treated wood (in words)” value (termites; different retention levels, text summary of Table 1B) was “severe insect attack” and the “Average Termite Ratings” value (termites; retention 0.32 kg/m^3, 12 months, Table 1B, Example 14 ethanol) was 4.2. The “Average Termite Ratings” value (termites; retention 0.32 kg/m^3, 12 months, Table 2B, Example 15 toluene) was 4.2, the “Average Termite Ratings” value (termites; retention 0.32 kg/m^3, 12 months, Table 3B, Example 16 (concentrates of Examples 2 and 13)) was 4.2 and the “Average Termite Ratings” value (termites; retention 0.32 kg/m^3, 24 months, Table 1B, Example 14 ethanol) was 0.6. The “Average Termite Ratings” value (termites; retention 0.32 kg/m^3, 24 months, Table 2B, Example 15 toluene) was 0.6, the “Average Termite Ratings” value (termites; retention 0.32 kg/m^3, 24 months, Table 3B, Example 16 (concentrates of Examples 2 and 13)) was 0.6 and the “Average Termite Ratings” value (termites; retention 0.32 kg/m^3, 36 months, Table 1B, Example 14 ethanol) was 0.0. For the same molecule, the “Average Termite Ratings” value (termites; retention 0.32 kg/m^3, 36 months, Table 2B, Example 15 toluene) was 0.0, the “Average Termite Ratings” value (termites; retention 0.32 kg/m^3, 36 months, Table 3B, Example 16 (concentrates of Examples 2 and 13)) was 0.0 and the “Average Termite Ratings” value (termites; retention 0.32 kg/m^3, 48 months, Table 1B, Example 14 ethanol) was 0.0. The “Average Termite Ratings” value (termites; retention 0.32 kg/m^3, 48 months, Table 2B, Example 15 toluene) was 0.0, the “Average Termite Ratings” value (termites; retention 0.32 kg/m^3, 48 months, Table 3B, Example 16 (concentrates of Examples 2 and 13)) was 0.0 and the “Average Termite Ratings” value (termites; retention 0.48 kg/m^3, 12 months, Table 1B, Example 14 ethanol) was 4.5. For the same molecule, the “Average Termite Ratings” value (termites; retention 0.48 kg/m^3, 12 months, Table 2B, Example 15 toluene) was 4.5, the “Average Termite Ratings” value (termites; retention 0.48 kg/m^3, 12 months, Table 3B, Example 16 (concentrates of Examples 2 and 13)) was 4.5 and the “Average Termite Ratings” value (termites; retention 0.48 kg/m^3, 24 months, Table 1B, Example 14 ethanol) was 1.2. The “Average Termite Ratings” value (termites; retention 0.48 kg/m^3, 24 months, Table 2B, Example 15 toluene) was 1.2, the “Average Termite Ratings” value (termites; retention 0.48 kg/m^3, 24 months, Table 3B, Example 16 (concentrates of Examples 2 and 13)) was 1.2 and the “Average Termite Ratings” value (termites; retention 0.48 kg/m^3, 36 months, Table 1B, Example 14 ethanol) was 0.0. The “Average Termite Ratings” value (termites; retention 0.48 kg/m^3, 36 months, Table 2B, Example 15 toluene) was 0.0, the “Average Termite Ratings” value (termites; retention 0.48 kg/m^3, 36 months, Table 3B, Example 16 (concentrates of Examples 2 and 13)) was 0.0 and the “Average Termite Ratings” value (termites; retention 0.48 kg/m^3, 48 months, Table 1B, Example 14 ethanol) was 0.0. The “Average Termite Ratings” value (termites; retention 0.48 kg/m^3, 48 months, Table 2B, Example 15 toluene) was 0.0, the “Average Termite Ratings” value (termites; retention 0.48 kg/m^3, 48 months, Table 3B, Example 16 (concentrates of Examples 2 and 13)) was 0.0 and the “Average Termite Ratings” value (termites; retention 0.64 kg/m^3, 12 months, Table 1B, Example 14 ethanol) was 4.8. For the same molecule, the “Average Termite Ratings” value (termites; retention 0.64 kg/m^3, 12 months, Table 2B, Example 15 toluene) was 4.8, the “Average Termite Ratings” value (termites; retention 0.64 kg/m^3, 12 months, Table 3B, Example 16 (concentrates of Examples 2 and 13)) was 4.8 and the “Average Termite Ratings” value (termites; retention 0.64 kg/m^3, 24 months, Table 1B, Example 14 ethanol) was 2.0. For the same molecule, the “Average Termite Ratings” value (termites; retention 0.64 kg/m^3, 24 months, Table 2B, Example 15 toluene) was 2.0, the “Average Termite Ratings” value (termites; retention 0.64 kg/m^3, 24 months, Table 3B, Example 16 (concentrates of Examples 2 and 13)) was 2.0 and the “Average Termite Ratings” value (termites; retention 0.64 kg/m^3, 36 months, Table 1B, Example 14 ethanol) was 0.0. For the same molecule, the “Average Termite Ratings” value (termites; retention 0.64 kg/m^3, 36 months, Table 2B, Example 15 toluene) was 0.0, the “Average Termite Ratings” value (termites; retention 0.64 kg/m^3, 36 months, Table 3B, Example 16 (concentrates of Examples 2 and 13)) was 0.0 and the “Average Termite Ratings” value (termites; retention 0.64 kg/m^3, 48 months, Table 1B, Example 14 ethanol) was 0.0. For the same molecule, the “Average Termite Ratings” value (termites; retention 0.64 kg/m^3, 48 months, Table 2B, Example 15 toluene) was 0.0 and the “Average Termite Ratings” value (termites; retention 0.64 kg/m^3, 48 months, Table 3B, Example 16 (concentrates of Examples 2 and 13)) was 0.0.

In the case of `CC1(C)C(C=C(Cl)Cl)C1C(=O)OC(C#N)c1cccc(Oc2ccccc2)c1` (centres unmarked) [cypermethrin], the “fungicidal activity” value (brown rots or white rots) is reported as “do not have fungicidal activity”.
